{
  "source": "patent US11299458B2",
  "about": "“Crystalline compounds” (OTSUKA AMERICA PHARMACEUTICAL, INC., priority 2015, dated 2022)",
  "format_in_all_cases": "physicochemical",
  "key": {"[1]": {"experiment": "Accelerated stress conditions (relative humidity stress), solid form by XRPD", "details": "two weeks", "description": "Relative Humidity Stress: Solids are stored at approximately 40° C./75% RH condition for a measured time period by placing the solids into a vial inside a sealed temperature/humidity chamber at the controlled condition. Samples are analyzed after removal from the stress environment.\nCrystalline Forms A, B, and C are exposed to accelerated stress conditions for two weeks (Table 18 below). […] Crystalline Form C is metastable at this condition.\nExperimental: Relative Humidity Stress\nThe following relative humidity jars (saturated salt solutions are used to generate desired relative humidity) are utilized: 75% RH (NaCl) and 56% RH (NaBr) (Nyqvist, H., Int. J. Pharm. Tech. &Prod. Mfr. 1983, 4 (2), 47-48)."}, "[2]": {"experiment": "Slurry in dichloromethane at ambient temperature, solvent mediated form conversion by XRPD", "details": "16 days, no seeds, hydrochloride", "description": "(§1) Slurry Experiments: Suspensions are prepared by adding enough solids to a given solvent so that excess solids are present. The mixture is then agitated in a sealed vial at ambient temperature or an elevated temperature. After a given period of time, the solids are isolated by vacuum filtration and analyzed.\n558.9 mg of Crystalline Form A from Example 5 above is slurried in 5 mL dichloromethane. The preparation is stirred (300 RPM) in a sealed vial at ambient temperature for 16 days. White solids are isolated by vacuum filtration, rinsed with 1 mL of dichloromethane, and briefly dried under nitrogen. […] The XRPD pattern is collected with a PANalytical X'Pert PRO MPD diffractometer using an incident beam of Cu radiation produced using an Optix long, fine-focus source. An elliptically graded multilayer mirror is used to focus Cu Kα X-rays through the specimen and onto the detector. Prior to the analysis, a silicon specimen (NIST SRM 640e) is analyzed to verify the observed position of the Si 111 peak is consistent with the NIST-certified position. A specimen of the sample is sandwiched between 3-μm-thick films and analyzed in transmission geometry. A beam-stop, short antiscatter extension, and an antiscatter knife edge are used to minimize the background generated by air. Soller slits for the incident and diffracted beams are used to minimize broadening from axial divergence. […]"}, "[3]": {"experiment": "Polymorph screen: crystallization, slurry, vapor stress and pH buffer experiments, XRPD result", "description": "Antisolvent Precipitation: Solutions are prepared in various solvents and filtered through a 0.2-μm nylon filter into a vial. Antisolvent is then added until precipitation is observed. The resulting solids are isolated by vacuum filtration and analyzed.\nCrash Cool (CC): Solutions are prepared in various solvents at an elevated temperature and filtered warm through a 0.2-μm nylon filter into a pre-cooled vial. The vial is placed in a (dry ice+isopropanol) cooling bath. Samples are placed into a freezer if no solids are observed to immediately precipitate. The resulting solids are isolated by vacuum filtration and analyzed.\n(§2) Fast Evaporation (FE): Solutions are prepared in various solvents and sonicated between aliquot additions to assist in dissolution. Once a mixture reaches complete dissolution, as judged by visual observation, the solution is filtered through a 0.2-μm nylon filter. The filtered solution is allowed to evaporate at ambient conditions in an uncapped vial. Solutions are evaporated to dryness unless designated as partial evaporations. The solids that formed are isolated and analyzed.\nSlow Cooling (SC): Solutions are prepared in various solvents at an elevated temperature. The solutions are filtered warm through a 0.2-μm nylon filter into a warm vial. The vial is capped and left on the hot plate, and the hot plate is turned off to allow the sample to cool slowly to ambient temperature. If no solids are present after cooling to ambient temperature, the sample is placed in a refrigerator and/or freezer for further cooling. Solids are collected by vacuum filtration and analyzed.\nas §2, with “Slow” for “Fast”, “(SE):” for “(FE):”, “sonicated” for “sonicated between aliquot additions”, “a vial covered with aluminum foil perforated with pinholes.” for “an uncapped vial.”, “form” for “formed”\nas §1\nVapor Diffusion (VD): Solutions are prepared in various solvents and filtered through a 0.2-μm nylon filter. The filtered solution is dispensed into a 1-dram vial, which is then placed inside a 20-mL vial containing antisolvent. The 1-dram vial is left uncapped and the 20-mL vial is capped to allow vapor diffusion to occur. The resulting solids are isolated and analyzed.\nVapor Stress (VS): A solid sample is placed into a 1-dram vial. The 1-dram vial is then placed into a 20-mL vial containing solvent. The 20-mL vial is capped and left at ambient conditions for a measured time period. Samples are analyzed after removal from the stress environment.\nCrystalline Form A through Form F are prepared as follows by using Crystalline Form A obtained from Example 1 above. A variety of crystallization techniques are used, including evaporation, cooling, solvent/antisolvent precipitation, slurry, vapor stress, and vapor diffusion, as described above.\nCrystalline Forms D, E, and F—Crystalline Form A is dissolved in pH adjusted buffered media. Undissolved solid or precipitate observed is analyzed by XRPD. Some experiments are conducted at elevated temperature to increase solubility, the undissolved solids are also analyzed by XRPD.\nCrystalline Form A from Example 5 is used to make the following crystalline forms."}, "[4]": {"experiment": "Solution calorimetry (SolCal), heats of solution in methanol", "details": "methanol, 25° C., hydrochloride", "description": "For each test, two heats of solution are obtained—one calculated using a calibration preceding the sample analysis and one calculated using a calibration following the sample analysis. Clear solutions are observed after each test.\nSolution calorimetry is performed using a Thermometric 2225 Precision Solution calorimeter, a semi-adiabatic calorimeter. Solution calorimeter System v.1.2 software is used. Samples are weighed into glass crushing ampoules and are sealed using silicone rubber plugs and hot wax. Experiments are carried out in 100 mL of methanol at 25° C. The measurement of the heats of solution of the samples is both preceded and followed by calibrations using an internal heater. The heats of solution are calculated using dynamic of calibration model."}},
  "note": "Values joined by “and” are separate entries in the source; they are usually repeats but may differ in a detail not shown here. Equal values may be shown once. “Also recorded” adds a separate entry of the source.",
  "data": [
    {"smiles": "Cl.c1ccc2cc([C@]34CNC[C@H]3C4)ccc2c1", "note": "[Crystalline Form A, (1R,5S)-1-(naphthalen-2-yl)-3-azabicyclo[3.1.0]hexane hydrochloride]", "values": [
      {"measurement": "solid form by XRPD after accelerated stress", "setting": "[1]; 30° C./56% RH", "result": "remain unchanged"},
      {"measurement": "solid form by XRPD after accelerated stress", "setting": "[1]; 40° C./75% RH, hydrochloride", "result": "remain unchanged"},
      {"measurement": "solid form after slurry in dichloromethane", "setting": "[2]", "result": "Product is Crystalline Form A; also recorded: does not cause a solvent mediated form conversion to Crystalline Form B"},
      {"measurement": "XRPD Result", "setting": "[3]; 1-propanol, CC (70° C. to dry ice/IPA), freezer/2 d", "result": "B + weak A"},
      {"measurement": "XRPD Result", "setting": "[3]; DCM, SE", "result": "A + B"},
      {"measurement": "XRPD Result", "setting": "[3]; EtOH, CC (70° C. to dry ice/IPA), freezer/2 d", "result": "C + weak A"},
      {"measurement": "XRPD Result", "setting": "[3]; EtOH, FE", "result": "A + B"},
      {"measurement": "XRPD Result", "setting": "[3]; EtOH, SC (70° C. to RT, refrigerator/2 d, freezer/8 d)", "result": "A + weak C"},
      {"measurement": "XRPD Result", "setting": "[3]; HFIPA/IPE, AS precipitation", "result": "A + weak"},
      {"measurement": "XRPD Result", "setting": "[3]; HFIPA, SE", "result": "A + weak B"},
      {"measurement": "XRPD Result", "setting": "[3]; IPA, CC (70° C. to dry ice/IPA), freezer/2 d, about 27 mg scale, 10 mg/mL", "result": "C + possible"},
      {"measurement": "XRPD Result", "setting": "[3]; TFE, SE", "result": "A + weak B"},
      {"measurement": "average heat of solution", "setting": "[4]; triplicate, endothermic", "result": 48.618, "unit": "J/g"},
      {"measurement": "average heat of solution", "setting": "[4]; average of three replicates", "result": 48.618, "unit": "J/g"},
      {"measurement": "ΔH2 (heat of solution)", "setting": "[4]; calculated using the calibration after breaking the sample vial, single replicates", "result": "49.905 J/g and 50.168 J/g and 49.217 J/g"},
      {"measurement": "ΔH1 (heat of solution)", "setting": "[4]; calculated using the calibration before breaking the sample vial, single replicates", "result": "48.077 J/g and 46.050 J/g and 48.293 J/g"},
      {"measurement": "ΔHmean (heat of solution)", "setting": "[4]; mean of the two calibrations, single replicates", "result": "48.991 J/g and 48.109 J/g and 48.755 J/g"}
    ]}
  ]
}
